US11679100B2, “Methods of enhancing immunity” (The Regents of the University of California, priority 2018, dated 2023)
Blank lines part the entries; values can stand above or below the compound they belong to.

What was measured:
Stat3 = target: T1, Stat3 (Mus musculus, UniProt P42227); experiment: mRNA expression in macrophages incubated with Stat3 inhibitor; assay type: cell-based, murine
T1 construct: endogenous in cells; host or cells: murine bone marrow derived macrophages (WT and Itgam-/-)
Experimental: Macrophage Polarization—Bone marrow derived macrophages were polarized with either IFNγ (20 ng/ml, Peprotech) plus LPS (100 ng/ml, Sigma) or LPS alone for 24 h or IL-4 (20 ng/ml, Peprotech) for 24-48 h. In some cases, macrophages were incubated with inhibitors of Stat3 ([…]) or cMyc (10058-F4, Selleck). In other experiments, BMM were treated with LLC tumor conditioned media (TCM) or 100 ng/ml TGF-β (PeproTech) for 6 h to analyze changes in protein and gene expression levels. TCM was obtained by culturing LLC in serum free media for 18 h followed by collecting the supernatant and sterile filtering prior to use. In some experiments TGF-β signaling was inhibited using SB5253324 added 30 min prior and during the 6 h stimulation. Total RNA was harvested from macrophages using the RNeasy Mini Kit (Qiagen) according to the manufacturer's instructions. Secreted protein was measured in culture supernatants by ELISA assays.
Analysis of Gene Expression—Total RNA was isolated from cells using RNeasy Mini Kit (Qiagen). cDNA was prepared using 1 μg RNA with the qScript cDNA Synthesis Kit (Quanta Biosciences) or the SuperScript III First-Strand Synthesis Kit (Invitrogen). […]

LLC tumors [1] = experiment: Imatinib treatment of WT and Itgam-/- mice bearing LLC tumors; assay type: in vivo
LLC tumors [2] = experiment: Gemcitabine treatment of WT and Itgam-/- mice with LLC tumors; assay type: in vivo
Experimental: Tumor Studies—Subcutaneous tumor studies: 5×10^5 LLC or B16 cells were injected subcutaneously into syngeneic (C57BL/6) 6- to 8-week old WT or Itgam^−/− mice (n=18). Tumors were excised at 7, 14 or 21 days, cryopreserved in OCT, lysed for RNA purification or collagenase-digested for flow cytometric analysis of CD11b+, F4/80+ and Gr1+ expression. Tumor volumes were calculated using the equation (l^2×w)/2. CL66-luc cells (0.5×10^6 cells) were suspended in 50 μL of basement membrane extract Matrigel (BD Pharmingen) in PBS (1:1) and inoculated orthotopically in the fourth mammary fat pad of female Balb/cJ mice. Tumor dimensions were measured every 2 days, and tumor volume was calculated using the equation: V (mm^3)=[…], where length is the longest diameter of the tumor and width is the shorter diameter.

T1 sequence (P42227 whole entry): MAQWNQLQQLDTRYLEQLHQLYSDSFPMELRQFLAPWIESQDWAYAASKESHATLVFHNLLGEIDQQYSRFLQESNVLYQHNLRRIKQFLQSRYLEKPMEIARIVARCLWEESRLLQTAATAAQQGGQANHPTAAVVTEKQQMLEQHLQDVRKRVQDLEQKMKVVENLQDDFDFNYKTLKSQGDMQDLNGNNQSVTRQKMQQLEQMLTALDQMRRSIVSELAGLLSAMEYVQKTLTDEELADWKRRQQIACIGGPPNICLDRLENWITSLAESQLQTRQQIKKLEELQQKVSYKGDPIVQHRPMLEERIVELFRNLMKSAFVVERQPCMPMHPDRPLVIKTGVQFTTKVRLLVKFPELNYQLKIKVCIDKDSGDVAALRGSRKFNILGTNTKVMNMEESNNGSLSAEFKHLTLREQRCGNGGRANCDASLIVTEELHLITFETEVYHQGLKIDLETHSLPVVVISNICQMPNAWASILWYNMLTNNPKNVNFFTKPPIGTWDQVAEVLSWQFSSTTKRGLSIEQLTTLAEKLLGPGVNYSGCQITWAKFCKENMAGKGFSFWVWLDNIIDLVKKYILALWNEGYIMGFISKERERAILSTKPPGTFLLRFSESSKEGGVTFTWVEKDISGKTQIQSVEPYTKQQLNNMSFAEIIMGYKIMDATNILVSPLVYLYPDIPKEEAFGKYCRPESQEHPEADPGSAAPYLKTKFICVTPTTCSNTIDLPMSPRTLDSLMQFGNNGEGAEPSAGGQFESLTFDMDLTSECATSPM

immune suppressive factor expression in Itgam-/- macrophages (Stat3): reduced to WT macrophage levels
SMILES: C1=Cc2nc1cc1ccc([nH]1)c(-c1ccccc1)c1nc(cc3ccc([nH]3)c2-c2ccccc2)C=C1 [5,15-DPP]
Il6 expression in Itgam-/- macrophages (Stat3): did not affect the high levels of Il6 expression

SMILES: Cc1ccc(NC(=O)c2ccc(CN3CCN(C)CC3)cc2)cc1Nc1nccc(-c2cccnc2)n1 [Imatinib, imatinib]
tumor growth and vascular normalization in Itgam-/- mice (LLC tumors [1]): suppressed the enhanced tumor growth and increased vascular normalization observed in Itgam−/− mice

SMILES: Nc1ccn([C@@H]2O[C@H](CO)[C@@H](O)C2(F)F)c(=O)n1 [gemcitabine]
tumor growth in Itgam-/- mice versus WT mice (LLC tumors [2]): suppressed tumor growth more profoundly than gemcitabine treatment of WT mice
